Residue numbers refer to the chain shown, from its start. Where no end group is shown, it is not given here.
How the values were obtained:
Test in all cases: Homologous whole cell competition binding
Conditions in all cases: homologous competition of 125I-sCT(8-32), whole cells, mean ± S.E.M., SEM
[1] = target: T1, hCTR Y372A (Homo sapiens, UniProt P30988, Y372A)
T1 construct: c-Myc (N); expressed in transfected cells
T1 sequence (P30988 25-474 Y372A): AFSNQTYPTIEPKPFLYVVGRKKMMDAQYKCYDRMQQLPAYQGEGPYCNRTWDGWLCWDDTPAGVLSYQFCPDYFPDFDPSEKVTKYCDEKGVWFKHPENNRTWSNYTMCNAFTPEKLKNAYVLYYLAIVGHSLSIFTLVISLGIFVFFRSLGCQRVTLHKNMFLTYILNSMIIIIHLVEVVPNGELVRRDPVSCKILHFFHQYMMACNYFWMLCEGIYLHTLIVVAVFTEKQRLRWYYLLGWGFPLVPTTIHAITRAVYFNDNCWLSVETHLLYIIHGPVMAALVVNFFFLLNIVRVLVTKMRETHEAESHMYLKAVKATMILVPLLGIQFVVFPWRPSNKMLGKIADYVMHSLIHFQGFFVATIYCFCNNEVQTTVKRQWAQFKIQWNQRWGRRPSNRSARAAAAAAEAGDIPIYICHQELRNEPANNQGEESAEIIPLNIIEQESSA
Experimental: (§1) Homologous radioligand competition was performed on 2.5 × 10^4 cells/well seeded into 96-well trays and cultured overnight. Cells were incubated overnight at 4 °C with two concentrations of ^125I-sCT(8-32) (between 25 and 100 pM; specific activity, 2000 Ci/mmol^9) and serial dilutions of non-iodinated sCT(8-32). Non-bound ligand was removed and bound ligand activity was measured using a γ counter (Wallac Wizard 1470 Gamma Counter, Perkin Elmer, 80% counter efficiency). Values were normalized against non-specific binding (0%) defined by the presence of 1 μM of unlabelled sCT(8-32), and total ligand bound in absence of competing sCT(8-32) (100%).
(§2) IC50 and Bmax values were estimated from competitive inhibition of ^125I-sCT(8-32) binding using a 3-parameter logistic equation (log(inhibitor versus response)) in Prism (v7; Graphpad). Data were corrected for radioligand occupancy using the Cheng-Prusoff equation in Prism; as such data are reported as pKi. Emax and EC50 were estimated from concentration-response curves using with a 3-parameter logistic equation in Prism (v7). These values are a composite of functional affinity, efficacy and stimulus response coupling. The Black and Leff operational model of agonism was applied to separate effects on pathway-specific efficacy (τ) from those that modify ligand functional affinity (pKA). Derived τ values were normalized to experimentally determined levels of cell surface expression to provide a measure of efficacy (τc) that is independent of affinity and altered cell surface receptor expression. pKi, pKA and log τc values for mutant receptors were statistically compared to those of the WT receptor using a one-way analysis of variance (ANOVA) and Dunnett’s post-test. Significance was accepted at P < 0.05.

[2] = target: T2, hCTR Y284A (Homo sapiens, UniProt P30988, Y284A)
T2 construct: expressed in transfected cells
T2 sequence (P30988 25-474 Y284A): T1 sequence (P30988 25-474 Y372A) with Y260A, A348Y
Experimental: as §1, §2

[3] = target: T3, hCTR N365A (Homo sapiens, UniProt P30988, N365A)
T3 construct: c-Myc (N); expressed in transfected cells
T3 sequence (P30988 25-474 N365A): T1 sequence (P30988 25-474 Y372A) with N341A, A348Y
Experimental: as §1, §2

[4] = target: T4, hCTR V357A (Homo sapiens, UniProt P30988, V357A)
T4 construct: c-Myc (N); expressed in transfected cells
T4 sequence (P30988 25-474 V357A): T1 sequence (P30988 25-474 Y372A) with V333A, A348Y
Experimental: as §1, §2

## VLGKLSQELHKLQTYPRTNTGSGTP-NH2 [sCT(8-32)]
[1]
  Ki: 0.141 nM
[2]
  Ki: 0.141 nM
[3]
  Ki: 0.234 nM
[4]
  Ki: 0.209 nM

Source: paper PMC5908784, “Extracellular loops 2 and 3 of the calcitonin receptor selectively modify agonist binding and efficacy” (Biochemical Pharmacology, 2018)
